Measurements published in patent US8017786B2, “Substituted β-phenyl-α-hydroxy-propanoic acid, synthesis method and use thereof” (Northwest University, priority 2006, dated 2011).

Assays:
Assay type in all cases: in vivo, rat
caspase-3 = assay: Immunohistochemistry protein expression in I/R myocardial tissue: caspase-3; settings: for Caspase-3 protein expression, OD value: 5 days, ischemia 30 min, reperfusion 2 h
Experimental: (§1) 52 SD rats having a body weight of 220±20 g were randomly divided into model control group, salviannic acid injection group (in 1 mL/kg), and group of bornyl β-(3,4-dihydroxylphenyl)-α-hydroxylpropionate ester at a small, middle and large dose (ip 5, 15, 35 mg/kg). The rats of the normal group and the model control group were ip administered with equal-volume of physiologic saline. The rats of all groups were administered for consecutive 5 days. When the rats were administered for the last time, they were simultaneously anesthetized with 1.5% pentobarbital sodium (ip 45 mg/kg), then a catheter was inserted into the right carotid artery, and connected via a transducer to an eight-channeled physiological recorder. Tracheal cannula was performed, and the ventilation rate was maintained at 60 times/min. The chest was opened, a 6/0 suture was used to form a loop at a site 1˜2 mm from the root of the anterior descending coronary artery, and a plastic pipe was introduced through the loop, then the loop was tightened up. The change of electrocardiogram was observed. An increase or decrease of ST indicated the success of ligation. The color of the myocardial tissue below the ligation suture became darker. 30 minutes later, the plastic pipe was pulled out to allow coronary artery blood flowing again and cause hyperemia of local tissue during reperfusion. For the groups subjected to ischemia for 30 min and reperfusion for 30 min, the myocardial infarction areas were recorded before the test, after ischemia for 1 min and 30 min, and after reperfusion for 30 min; for the groups subjected to ischemia for 30 min and reperfusion for 2 h, cardiac tissue samples were taken and fixed using 10% formalin, embedded with paraffin, serially sliced into sections with a thickness of 4 μm, and separately subjected to immunohistochemistry tests; the rats of the sham operation group were subjected only to the introduction of suture but their coronary arteries were not ligated.
(§2) Standard immunohistochemistry ABC and SP methods were employed for staining. Bax: anti-rabbit polyclonal antibody (Santa CruzBio. Inc.) at a dilution of 1:200; […]: anti-rabbit polyclonal antibody (TBD Tianjin Biotechnological Center). At a dilution of […]; caspase-3: anti-rabbit polyclonal antibody (Normarkers Fromont, Calif.), at a dilution of 1:200; MMP-2: anti-murine monoclonal antibody (NormarkersFromont, Calif.) at a dilution of 1:200; PPARγ: anti-caprine polyclonal antibody (Santa Cruz Bio. Inc.), at a dilution of 1:500. The specific procedures were performed in accordance with the instructions of the ABC and SP kits, DAB was used for color development, and neutral resin was used for mounting. PBS was used instead of the first antibody as a negative control. Cells with positive expression of the test polypeptides were of brown-yellow color, with MMP-2 protein being present in acytoplasm, Bcl-2 expressed in nuclear membrane and cytoplasm, Bax mainly in cytoplasm and partially in nucleus, and caspase-3 mainly in nucleus and partially in cytoplasm. CMIAS image analysis system was used for random selection of fields of slices and automatic selection of sites for analysis, and statistic analysis was performed by using mean optical density values or integral optical density values of the obtained myocardial tissue slices.

[1] = test system: creatine kinase isoenzyme (CK-MB); assay: Serum CK-MB activity in rats with myocardial ischemia; settings: for CK-MB: serum, 24 h after ligation
Experimental: (§3) At 0.5 h after the rats of these groups were administered intragastrically, the standard II lead electrocardiogram (before modeling) was recorded, and the height of ST-T segment was measured. The rats of sham operation group were then subjected to coronary artery braid without ligation, and the rats of other groups were subjected to coronary artery ligation in accordance with the following method to establish cute myocardial ischemia models. The rats were subjected to etherization, fixed at supine position, and their normal electrocardiograms (before modeling) were recorded. The skin of left thorax was incised under aseptic conditions, the 4th intercostal muscles were isolated in blunt way, the heart was extruded by light pressure to the right thorax, the left anterior descending coronary artery was ligated at a position 2˜3 mm departing from the left coronary artery origin and between the pulmonary conus and the left auricle of heart, then the heart was sent back to thorax cavity immediately and sutured the incision. Penicillin was smeared topically for the prevention of infections. After operation, the electrocardiogram of postischemia was recorded immediately (at 0 min after modeling), and the height of ST-T segment was measured.

[2] = test system: rats with cardiac ischemia reperfusion (I/R) injury; assay: Myocardial infarction areas caused by cardiac muscle I/R; settings: for aar/lv / nec/aar / nec/lv: 5 days, ischemia 30 min, reperfusion 30 min
Experimental: as §1
After the rats were subjected to ischemia and reperfusion for 30 minutes, their anterior descending coronaries were ligated again, then they were sacrificed, their hearts were removed promptly, and 0.5 mL of 1% evans blue was injected into heart chambers via aorta to distinguish the ischemic regions and the non-ischemic regions. After the heart atrium and right ventricle were cut-off, the heart was refrigerated at −20° C. for 30 min, then placed in a tailor-made slice groove, and cut along the long axis to form 2 mm slices. The slices were immersed in 1% TTC phosphoric acid buffer solution (pH7.4), and incubated at 37° C. for 30 min to distinguish risky regions and necrotic regions. Then the slices were fixed with 10% formaldehyde for 24 h to enhance staining color for contrast photography. After the above treatment, the myocardial tissue was divided into: normal myocardia in blue, ischemic myocardia in light red, and necrotic myocardion in gray. A computer image analysis software was used to calculate the percentage of the area of the infarct myocardial region (nec) based on the area of the risky myocardial region (aar, i.e., ischemic myocardia, including ischemic infarct region and ischemic non-infarct region) (nec/aar), and the percentage of the area of the infarct myocardial region based on the whole area of the myocardia (nec/lv) to indicate the degree of infarct, as well as the percentage of the area of the risky myocardia based on the area of the left ventricle (aar/lv).

[3] = test system: lactate dehydrogenase (LDH); assay: Serum LDH activity in rats with myocardial ischemia; settings: for LDH: serum, 24 h after ligation
Experimental: as §3

PPARγ = assay: Immunohistochemistry protein expression in I/R myocardial tissue: PPARγ; settings: 5 days, ischemia 30 min, reperfusion 2 h
Experimental: as §1
Standard immunohistochemistry ABC and SP methods were employed for staining. Bax: anti-rabbit polyclonal antibody (Santa CruzBio. Inc.) at a dilution of 1:200; […]: anti-rabbit polyclonal antibody (TBD Tianjin Biotechnological Center). At a dilution of […]; caspase-3: anti-rabbit polyclonal antibody (Normarkers Fromont, Calif.), at a dilution of 1:200; MMP-2: anti-murine monoclonal antibody (NormarkersFromont, Calif.) at a dilution of 1:200; PPARγ: anti-caprine polyclonal antibody (Santa Cruz Bio. Inc.), at a dilution of 1:500. The specific procedures were performed in accordance with the instructions of the ABC and SP kits, DAB was used for color development, and neutral resin was used for mounting. PBS was used instead of the first antibody as a negative control. […]

malondialdehyde (MDA) = assay: Serum MDA content in rats with myocardial ischemia; settings: for MDA: serum, 24 h after ligation
Experimental: as §3

Bcl-2 = assay: Immunohistochemistry protein expression in I/R myocardial tissue: Bcl-2; settings: for Bcl-2 protein expression, OD value: 5 days, ischemia 30 min, reperfusion 2 h
Experimental: as §1, §2

MMP-2 = assay: Immunohistochemistry protein expression in I/R myocardial tissue: MMP-2; settings: for MMP-2 protein expression, OD value: 5 days, ischemia 30 min, reperfusion 2 h
Experimental: as §1, §2

## CC1(C)C2CCC1(C)C(OC(=O)C(O)Cc1ccc(O)c(O)c1)C2 (stereo not drawn) [bornyl salvianate ester, bornyl β-(3,4-dihydroxylphenyl)-α-hydroxylpropionate ester]
caspase-3; 5 mg/kg ip
  Caspase-3 protein expression, OD value: 0.35 ± 0.14
caspase-3; 15 mg/kg ip
  Caspase-3 protein expression, OD value: 0.32 ± 0.08
caspase-3; 35 mg/kg ip
  Caspase-3 protein expression, OD value: 0.20 ± 0.07
caspase-3; myocardial cells I/R
  expression of caspase-3 protein (in words): reduce the expression of Bax and caspase-3 proteins
[1]; 10 mg/kg intragastric
  CK-MB: 1267.0 ± 274.4 U/L
[1]; 20 mg/kg intragastric
  CK-MB: 1074.1 ± 116.8 U/L
[1]; 40 mg/kg intragastric
  CK-MB: 906.3 ± 99.9 U/L
[1]; all dose groups, 24 h later
  activity of creatine kinase isoenzyme (CK-MB) (in words): decreased
[2]; 5 mg/kg ip
  aar/lv: 64.09 ± 18.10%
  nec/aar: 61.72 ± 14.65%
  nec/lv: 48.45 ± 17.11%
[2]; 15 mg/kg ip
  aar/lv: 63.02 ± 15.98%
  nec/aar: 62.63 ± 13.82%
  nec/lv: 48.23 ± 15.34%
[2]; 35 mg/kg ip
  aar/lv: 51.97 ± 13.04 %
  nec/aar: 50.01 ± 9.03 %
  nec/lv: 40.21 ± 12.65 %
[2]; large dose group (35 mg/kg ip)
  decrease of aar/lv in comparison with the model control group: 22.5%
  decrease of nec/aar in comparison with the model control group: 22%
  decrease of nec/lv in comparison with the model control group: 20.4%
[3]; 10 mg/kg intragastric
  LDH: 1663.7 ± 374.43 U/L
[3]; 20 mg/kg intragastric
  LDH: 2022.7 ± 202.63 U/L
[3]; 40 mg/kg intragastric
  LDH: 1712.5 ± 209.1 U/L
[3]; all dose groups, 24 h later
  activity of lactate dehydrogenase (LDH) (in words): decreased
PPARγ; 5 mg/kg ip
  PPARγ protein expression, OD value: 0.16 ± 0.05
PPARγ; 15 mg/kg ip
  PPARγ protein expression, OD value: 0.18 ± 0.06
PPARγ; 35 mg/kg ip
  PPARγ protein expression, OD value: 0.18 ± 0.10
Malondialdehyde (MDA); 10 mg/kg intragastric
  MDA: 21.69 ± 27.94 nmol/mL
Malondialdehyde (MDA); 20 mg/kg intragastric
  MDA: 10.60 ± 11.156 nmol/mL
Malondialdehyde (MDA); 40 mg/kg intragastric
  MDA: 9.43 ± 6.57 nmol/mL
Malondialdehyde (MDA); middle and large dose groups, no significant difference from model control
  serum MDA content (in words): decrease tendency
Bcl-2; 5 mg/kg ip
  Bcl-2 protein expression, OD value: 0.15 ± 0.03
Bcl-2; 15 mg/kg ip
  Bcl-2 protein expression, OD value: 0.15 ± 0.06
Bcl-2; 35 mg/kg ip
  Bcl-2 protein expression, OD value: 0.21 ± 0.04
Bcl-2; myocardial cells I/R
  expression of Bcl-2 protein (in words): increase the expression of Bcl-2 protein
MMP-2; 5 mg/kg ip
  MMP-2 protein expression, OD value: 0.14 ± 0.05
MMP-2; 15 mg/kg ip
  MMP-2 protein expression, OD value: 0.14 ± 0.03
MMP-2; 35 mg/kg ip
  MMP-2 protein expression, OD value: 0.11 ± 0.03
MMP-2; myocardial I/R
  MMP-2 protein (in words): decrease of MMP-2 protein
